Series [1] has as its system primary human T cells. Nature of the series: Leptin-induced cytokine protein and mRNA expression in anti-CD3-activated human T cells. The series is classed as cell-based. As to conditions: 24 h. As to the method:
(§1) T cell isolation and culture. Peripheral blood mononuclear cells (PBMC) were obtained by Ficoll-Hypaque density centrifugation. T cells were purified from PBMC using human T cell enrichment columns (R&D systems) via high affinity negative selection according to manufacturer's instructions. […] T cells were stimulated with plate bound anti-human CD3 antibody (BD Pharmingen, San Diego, Calif.) (200 ng/ml) at a concentration of 3×10^6 cells/ml in AIM-V serum free media for 24 h.
(§2) Cytokine estimation. IL-1β, IL-6 and TNF-α were estimated in T cell supernatants after 24 h using commercial ELISA kits according to manufacturer's instructions (Biosource, Camarillo, Calif.). Serum cytokines were analyzed using Bio-Plex Mouse Cytokine 18-Plex Panel according to manufacturer's instructions (Biorad, Hercules, Calif.).
(§3) Real Time RT-PCR analysis. RT-PCR was performed as described previously (Nagasawa et al. Adv. Immunol. 71: 211-228 (1999)). Total RNA (2 μg) and oligo-dT primers were used to synthesize single-stranded cDNA using the Reverse Transcription kit (Life Technologies, Gaithersburg, Md.) according to manufacturer's instructions. The PCR was set up using SYBR green Master Mix (Applied Biosystems), 1 μl cDNA and gene-specific primers at a final concentration of 0.3 μM. Thermal cycling was carried out on the Applied Biosystems GeneAmp 7700 Sequence Detector and SYBR green dye intensity was analyzed using GeneAmp 7700 SDS software. […] Mouse IL-1β, IL-6, TNF-α, GAPDH and human GHS-R1a primers were designed using ABI prism software (PE Applied Biosystems). The PCR product of the GHS-R 1a amplification was quantitated using the Agilent 2100 Bioanalyzer (Agilent Technologies, Palo Alto, Calif.). Primers are available upon request. No PCR products were generated from genomic versus cDNA template.

In series [2] the test system is human T cells. Nature of the series: Effect of leptin on ghrelin and GHS-R expression in human T cells. The series is classed as cell-based. Here is the method: as §1
as §3, with “No PCR products were generated from genomic versus cDNA template.” left out

Series [3] has as its system human T cells. Put plainly: T cell proliferation and IL-2 levels after anti-CD3 mAb and ghrelin. The series is classed as cell-based. As to conditions: anti-CD3 mAb and ghrelin treatment.
The test system of series [4] is LPS-induced endotoxemia. Put plainly: LPS-induced endotoxemia in mice: tissue cytokine mRNA, real time PCR. Particulars: for TNF-α expression: 24 h post LPS. The series is classed as in vivo, BALB/c mice. Here is the method: (§4) Mice. Male 20-22 g BALB/c mice (Taconic, Germantown, N.Y.), 8-10 weeks old, were used. The guidelines proposed by the committee for the Care of Laboratory Animal Resources Commission of Life Sciences-National Research Council were followed to minimize animal pain and distress. Each animal received rodent laboratory chow and ad libitum water.
(§5) LPS-induced inflammation. Endotoxin shock in mice was induced by intraperitoneal (i.p.) injection with 10 μg of LPS (E. coli serotype 055:B5, Sigma) as described previously (Bochkov et al. 2002. Nature. 419: 77-8). […] Mice were sacrificed 4 h and 24 h post-LPS challenge and visceral organs and serum were collected.
as §3
(Quantitative PCR measures a nucleic acid by following its amplification.)

The test system of a further series is T cells. Nature of the series: Cytokine mRNA expression in T cells, real time RT-PCR. Format: cell-based, human. As to conditions: normalized with GAPDH. As to the method:
as §1, §3

The subject of series [5] is primary human T cells. Put plainly: Cytokine production by anti-CD3-stimulated primary human T cells (ELISA). The series is classed as cell-based. As to conditions: immobilized anti-CD3 antibody, 24 h. As to the method: as §1, §2
(In an ELISA, binding on a coated surface is turned into a signal by an enzyme label.)

Another series concerns T cells or PBMCs. Nature of the series: Cytolytic effects: lactate dehydrogenase and trypan blue cell counts. Format: cell-based, human. Particulars: control vs hormone-treated T cells or PBMCs. An excerpt: The classical pro-inflammatory cytokines, IL-1a, IL-1β, IL-6 and TNF-α are known to play a critical role in development of anorexia-cachexia syndrome (Inui et al. 1999. Cancer Res. 59: 4493-4501). The anorexia-cachexia syndrome is a complex multifactorial metabolic condition associated with altered protein, carbohydrate and fat metabolism resulting in anorexia, negative energy balance, weight loss and muscle wasting (Kotler et al. 2000. Ann. Internal Med. 133: 622-634).

Series [6] deals with human T cells. Nature of the series: Actin polymerization in human T cells (phalloidin staining). The series is classed as cell-based. As to conditions: ghrelin 100 ng/ml, 20 min. An excerpt: Actin Polymerization. […] Thereafter cells were fixed and permeabilized in 2% Paraformaldehyde plus 0.1% Triton-X 100 and stained for actin using phalloidin AF-594 and nucleus by DAPI.

For another series, the system named is Human PBMCs. Put plainly: Cytokine production by PHA-stimulated human PBMCs (ELISA). Format: cell-based. Particulars: 24 h.
For the next series, the system named is LPS-induced anorexia. Put plainly: Food intake in LPS-challenged and control mice. Format: in vivo, BALB/c mice. As to the method:
as §4, §5

Series [7] deals with LPS-induced endotoxemia. Nature of the series: LPS-induced endotoxemia in mice: serum cytokine levels (Bio-Plex). Format: in vivo, BALB/c mice. As to the method: as §4, §5, §2
Another series has as its target T1, GHS-R (Homo sapiens, UniProt Q92847).
T1 construct: endogenous in cells; host or cells: cultured human T cells
Put plainly: Intracellular calcium mobilization in cultured human T cells (Fura-2). Format: cell-based. Here is the method:
Intracellular calcium mobilization. […] Cells were incubated in PBS containing 5 μM Fura-2 AM for 30 minutes at room temperature. The cells were subsequently washed and then resuspended at 1×10^6/mL in PBS. A total of 2 mL of the cell suspension was placed in a continuously stirring cuvette at room temperature in an LS50B spectrophotometer (Perkin-Elmer, Wellesley, Mass.). Fluorescence was monitored at λex1=340 nm, λex2=380 nm, and λem=510 nm. The data are presented as the relative ratio of fluorescence excited at 340 and 380 nm.
In general terms: A change in cytosolic calcium serves as a functional read-out for many receptors and channels.

Setting [8] is: leptin alone, primary human T cells and PBMCs.
Where [9] appears, read: spleen and liver, 4 and 24 h post LPS, ghrelin 5 mg/kg i.p.
[10] abbreviates: PHA 1 μg/ml, ghrelin 1 to 100 ng/ml.
[11] abbreviates: ghrelin alone vs sham control mice.

Where no end group is shown, it is not given here. The star is where a group is joined. Octanoyl = CCCCCCCC(=O)*

T1 sequence (Q92847 whole entry): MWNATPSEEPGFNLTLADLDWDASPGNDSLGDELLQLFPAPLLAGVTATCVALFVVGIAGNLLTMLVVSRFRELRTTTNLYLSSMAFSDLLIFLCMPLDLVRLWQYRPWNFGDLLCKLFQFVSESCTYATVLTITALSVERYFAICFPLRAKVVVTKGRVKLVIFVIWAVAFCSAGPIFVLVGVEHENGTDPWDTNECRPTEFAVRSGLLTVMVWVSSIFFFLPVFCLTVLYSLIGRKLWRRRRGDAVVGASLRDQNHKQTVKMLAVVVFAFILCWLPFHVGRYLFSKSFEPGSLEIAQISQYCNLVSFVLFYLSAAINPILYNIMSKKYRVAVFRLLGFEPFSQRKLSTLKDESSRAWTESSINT

Take “leptin: a member of gp130 family of cytokines, regarded as a pro-inflammatory inducer”: in the series with primary human T cells [1] (setting [8]), the “IL-1β protein and mRNA expression” value was “significant dose-dependent increase”; the “IL-6 protein and mRNA expression” value is on record as “significant dose-dependent increase”; the “TNF-α protein and mRNA expression” value is listed as “significant dose-dependent increase”. In the series with human T cells [2] (anti-CD3-stimulated T cells, 24 h), the “ghrelin protein production or gene expression” value was “failed to exert any significant effects”. Moreover, the “GHS-R mRNA expression” value in the series with human T cells [2] (human T cells, real time RT-PCR) is “significant increase”.

For ghrelin, in the series with human T cells [3], the IL-2 secretion entry is reported as “no significant effects” and the T cell proliferation result is “no significant effects”. Besides, the TNF-α expression entry in the series on LPS-induced endotoxemia [4] (liver) is given as “inhibited”. Also, in the series with LPS-induced endotoxemia [4] (setting [9]), the “IL-1β mRNA expression” value is given as “attenuation” and the “IL-6 mRNA expression” value is “attenuation”. The “TNF-α mRNA” value in the series on LPS-induced endotoxemia [4] (spleen and liver, 4 h post LPS) was “Attenuation”. Besides, in the series on LPS-induced endotoxemia [4] (spleen), the TNF-α expression result was “remained unchanged”. For the same substance, in the series on T cells, the “IL-1β mRNA expression” value was “significantly inhibits”, the “IL-6 mRNA expression” value is on record as “significantly inhibits” and the “TNF-α mRNA expression” value is “significantly inhibits”. Besides, the “leptin-induced cytokine protein and gene expression (IL-1β, IL-6, TNF-α)” value in the series with primary human T cells [1] (ghrelin co-incubated with leptin 100 nM, T cells) is on record as “dose-dependent inhibition”. In the series with primary human T cells [5], the IL-1β production result is given as “significant dose-dependent inhibition” and the IL-6 production entry is “significant dose-dependent inhibition”. The “cytolytic effects (LDH, cell counts by trypan blue exclusion)” value in the series with T cells or PBMCs is “failed to demonstrate any significant difference between control and hormone-treated cells”. The “actin polymerization / polarization of F-actin” value in the series on human T cells [6] is given as “marked increase in broad membrane structures characteristic of lamellipodia with typical polarization of F-actin”. For the same substance, the TGF-β production result in the series on Human PBMCs (PHA 1 μg/ml, any concentration tested) is reported as “failed to alter TGF-β production”. In addition, in the series with Human PBMCs (setting [10]), the IL-1β production entry is reported as “significant inhibition”, the IL-6 production result was “significant inhibition” and the TNF-α production result was “significant inhibition”. Moreover, the “LPS-induced anorexia (food intake)” value with LPS-induced anorexia (24 h post ghrelin and LPS, prior ghrelin treatment) is given as “significant attenuation of this LPS-induced anorexia”. The “increase in food intake compared to sham controls” value in the series on LPS-induced anorexia (ghrelin-treated control mice in the absence of LPS challenge, 24 h) is reported as 30%. In the series on LPS-induced endotoxemia [7] (24 h after LPS challenge), the “serum IL-1β” value is on record as “significant inhibition” and the “serum IL-6” value is on record as “significant inhibition”. The “serum ILα levels” value in the series on LPS-induced endotoxemia [7] (24 h post LPS and ghrelin treatment) is listed as “inhibited”. In the series on LPS-induced endotoxemia [7] (setting [11]), the “Serum IL-1α level” value was “significantly inhibited” and the “Serum IL-1β level” value is on record as “significantly inhibited”. Further, in the series on LPS-induced endotoxemia [7] (serum, 4 h), the “circulating IL-6 level” value is recorded as “but not in IL-1β (FIG. 7a) or IL-6” and the “circulating TNF-α level” value is “significant change”.

For the substance “Gly-Ser-Ser(n-Octanoyl)-Phe-Leu-Ser-Pro-Glu-His-Gln-Arg-Val-Gln-Gln-Arg-Lys-Glu-Ser-NH2 (GSS(Octanoyl)FLSPEHQRVQQRKES-NH2; N-terminus assumed; SMILES CCCCCCCC(=O)OC[C@H](NC(=O)[C@H](CO)NC(=O)CN)C(=O)N[C@@H](Cc1ccccc1)C(=O)N[C@@H](CC(C)C)C(=O)N[C@@H](CO)C(=O)N1CCC[C@H]1C(=O)N[C@@H](CCC(=O)O)C(=O)N[C@@H](Cc1c[nH]cn1)C(=O)N[C@@H](CCC(N)=O)C(=O)N[C@@H](CCCNC(=N)N)C(=O)N[C@H](C(=O)N[C@@H](CCC(N)=O)C(=O)N[C@@H](CCC(N)=O)C(=O)N[C@@H](CCCNC(=N)N)C(=O)N[C@@H](CCCCN)C(=O)N[C@@H](CCC(=O)O)C(=O)N[C@@H](CO)C(N)=O)C(C)C) [ghrelin 1-18 fragment]”, the “rise in intracellular [Ca^2+]” value with GHS-R (cultured human T cells, ghrelin 100 ng/ml) is “significant and specific rise in intracellular [Ca^2+]”.

For the substance [D-Lys-3]-GHRP-6 [reference compound], the “effect on ghrelin-mediated intracellular calcium release” value at GHS-R (pretreatment with antagonist 10^−4 M, then ghrelin 100 ng/ml) is recorded as “markedly attenuated”. Further, the “effect on ghrelin-mediated inhibition of cytokine production” value with Human PBMCs (antagonist 10^−4 M added with ghrelin, PHA-stimulated PBMCs) is listed as “attenuated this ghrelin-mediated inhibition”.

These data come from patent US20080269116A1 (priority 2004, published 2008).
